Data on eleven compounds can be found in US12479821B2 (MBD CO., LTD., priority 2019, dated 2025).

Structures are written as SMILES. A value given as a limit tells only on which side of the number the result lay.

What is called inhibition is the relative decrease from the control value, in per cent.

One experiment has as its target T1, CYP4A (Homo sapiens, UniProt Q02928).
T1 construct: host or cells: bactosome, i.e. bacterial membrane preparation (own knowledge of the term)
T1 sequence (Q02928 5-519): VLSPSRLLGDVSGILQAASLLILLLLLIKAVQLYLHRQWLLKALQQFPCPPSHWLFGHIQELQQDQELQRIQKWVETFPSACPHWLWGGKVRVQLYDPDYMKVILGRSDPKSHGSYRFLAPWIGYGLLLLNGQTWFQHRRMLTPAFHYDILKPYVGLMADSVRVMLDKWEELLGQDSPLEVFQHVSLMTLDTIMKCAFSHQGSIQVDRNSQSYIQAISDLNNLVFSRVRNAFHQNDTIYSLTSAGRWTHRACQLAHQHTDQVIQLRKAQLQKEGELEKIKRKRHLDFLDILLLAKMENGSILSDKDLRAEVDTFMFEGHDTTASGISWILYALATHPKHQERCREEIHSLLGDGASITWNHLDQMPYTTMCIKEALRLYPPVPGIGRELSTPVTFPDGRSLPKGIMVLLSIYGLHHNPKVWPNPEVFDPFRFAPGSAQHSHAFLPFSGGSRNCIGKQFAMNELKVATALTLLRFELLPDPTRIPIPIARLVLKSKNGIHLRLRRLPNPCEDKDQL
Description: CYP4A enzyme assay (Luciferin-ME luminescence, CYP4A bactosome). The class given is biochemical. To be noted: compound concentration 5 μM; 75% or more; read-out: % Inhibition 75% or more. The procedure, abridged: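 CYP4A bactosome preincubated 15 min at room temperature with compound (5 μM) in 100 mM KPO4, 0.1% BSA, 1 mM DTT. Luciferin-ME (5 mM) plus NADPH regeneration system added, 30 min at room temperature, then detection reagent for 15 min. Inhibition derived from luminescence versus controls.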
On to `O=C(C1CCCN(S(=O)(=O)c2cccc(Br)c2)C1)N1CCN(c2ccnc3cc(F)ccc23)CC1` (centres unmarked) [Formula 62, (1-(3-bromophenylsulfonyl)piperidin-3-yl) (4-(7-fluoroquinolin-4-yl)piperazin-1-yl) methanone], for which the inhibition at 5 µM was not below 75%. On the same count and under the same terms, under `O=C(C1CCCN(S(=O)(=O)c2ccc(-c3cncnc3)cc2)C1)N1CCN(c2ccnc3cc(F)ccc23)CC1` (centres unmarked) [Formula 111, (4-(7-fluoroquinolin-4-yl)piperazin-1-yl) (1-(4-(pyrimidin-5-yl)phenylsulfonyl)piperidin-3-yl) methanone] stands not below 75%; under `O=C(C1CCCN(S(=O)(=O)c2cccc([N+](=O)[O-])c2)C1)N1CCN(c2ccnc3ccccc23)CC1` (centres unmarked) [Formula 82, (1-(3-nitrophenylsulfonyl)piperidin-3-yl) (4-(quinolin-4-yl)piperazin-1-yl) methanone], not below 75%; under `CN(C)c1ccc(S(=O)(=O)N2CCCC(C(=O)N3CCN(c4ccnc5cc(F)ccc45)CC3)C2)cc1` (centres unmarked), not below 75%. With `CN(C)c1ccc(S(=O)(=O)N2CCCC(C(=O)N3CCN(c4ccnc5ccccc45)CC3)C2)cc1` (centres unmarked) [Formula 77, (1-(4-(dimethylamino)phenylsulfonyl)piperidin-3-yl) (4-(quinolin-4-yl)piperazin-1-yl) methanone], the inhibition at 5 µM is not below 75%. Same read-out and setting: in the case of `CC(=O)Nc1ccc(S(=O)(=O)N2CCCC(C(=O)N3CCN(c4ccnc5cc(F)ccc45)CC3)C2)cc1` (centres unmarked) [Formula 45, N-(4-(3-(1-(7-fluoroquinolin-4-yl)piperazine-4-carbonyl)piperidin-1-ylsulfonyl)phenyl) acetamide] it was not below 75%. Still for that read-out and setting: in the case of `N#Cc1ccc(S(=O)(=O)N2CCCC(C(=O)N3CCN(c4ccnc5cc(Cl)ccc45)CC3)C2)cc1` (centres unmarked) [Formula 10, 4-(3-(1-(7-chloroquinolin-4-yl)piperazine-4-carbonyl)piperidin-1-ylsulfonyl)benzonitrile] it was not below 75%; in that of `CC(=O)Nc1ccc(S(=O)(=O)N2CCCC(C(=O)N3CCN(c4ccnc5cc(Cl)ccc45)CC3)C2)cc1` (centres unmarked) [Formula 116, N-(4-(3-(4-(7-chloroquinolin-4-yl)piperazine-1-carbonyl)piperidin-1-ylsulfonyl)phenyl) acetamide], not below 75%.

The same experiment, now with this note: compound concentration 5 μM; '50%-75%'; read-out: % Inhibition 50%-75%.
On to `O=C(C1CCCN(S(=O)(=O)c2ccccc2)C1)N1CCN(c2ccnc3ccccc23)CC1` (centres unmarked) [Formula 74, (1-(phenylsulfonyl)piperidin-3-yl) (4-(quinolin-4-yl)piperazin-1-yl) methanone], for which the inhibition at 5 µM lay within 50 to 75%.

With `CC(=O)Nc1ccc(S(=O)(=O)N2CCCC(C(=O)N3CCN(c4cc(C(F)(F)F)nc5ccccc45)CC3)C2)cc1` (centres unmarked) [Formula 63, N-(4-(3-(1-(2-(trifluoromethyl)quinolin-4-yl)piperazine-4-carbonyl)piperidin-1-ylsulfonyl)phenyl) acetamide], the inhibition at 5 µM was in the range of 50 to 75%. Still for that read-out and setting: under `CN(C)C(=O)c1ccc(S(=O)(=O)N2CCCC(C(=O)N3CCN(c4ccnc5cc(Cl)ccc45)CC3)C2)cc1` (centres unmarked) [Formula 99, 4-(3-(1-(7-chloroquinolin-4-yl)piperazine-4-carbonyl)piperidin-1-ylsulfonyl)-N,N-dimethylbenzamide] stands 50 to 75%.
